The values below come from patent US20260347380A1, “MODULATORS OF CD1 PROTEIN BINDING TO T CELL RECEPTORS” (The Brigham and Women's Hospital, Inc., priority 2022, published 2026).

Experiment [1] deals with CD1a (Homo sapiens, UniProt P06126). The experiment is described as follows: structure of CD1a-lipid complexes (FIG. 3, FIG. 4; co-crystallization). Particulars: for binding mode to CD1a and effect on approach of T cell receptors: sphingomyelins, FIG. 3. The source says: Sulfatide sits similarly within CD1a as compared to other lipids, but the sulfatide headgroup alters the protein surface of CD1a and protrudes to the outer surface of CD1a where it can block T cell receptors.
CD1a, sequence (P06126 17-327): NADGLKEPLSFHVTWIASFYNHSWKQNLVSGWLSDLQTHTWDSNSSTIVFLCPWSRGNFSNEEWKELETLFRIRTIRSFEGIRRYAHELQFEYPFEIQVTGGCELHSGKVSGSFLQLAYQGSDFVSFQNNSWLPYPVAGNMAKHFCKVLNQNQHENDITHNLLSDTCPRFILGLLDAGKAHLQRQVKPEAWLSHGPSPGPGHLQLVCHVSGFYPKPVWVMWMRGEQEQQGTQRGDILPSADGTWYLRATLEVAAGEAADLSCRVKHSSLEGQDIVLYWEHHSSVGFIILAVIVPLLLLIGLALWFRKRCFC
CD1a, sequence (P61769 21-119 partner): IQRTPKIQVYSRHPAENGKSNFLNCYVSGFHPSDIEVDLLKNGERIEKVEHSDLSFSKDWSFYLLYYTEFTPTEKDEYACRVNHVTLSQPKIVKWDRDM
Sulfatides (compounds S1-S10) have the same kinds of CD1a binding lipid tails as the synthetic sphingomyelins, but carry a differing headgroup comprised of sulfate and carbohydrate rather than phosphocholine. […] However, the head group of sulfatide has two proposed mechanisms for blocking TCR contact. […] However, the sulfatide moiety also disrupts a triad of residues on the outer surface of CD1a, which changes the intrinsic conformation of CD1a at the site at which the TCR can bind. These structural data predict that sulfatides could be particularly broad and efficacious blockers of T cell response.

For experiment [2], the system named is CD1a-T cell receptor. Particulars: CD1a tetramer binding in vitro, J. Exp. Med. 2021, cited from earlier work.
Experiment [3] concerns the target CD1a protein binding to RCS36 T cells (Homo sapiens, UniProt P06126). Briefly: CD1a tetramer staining of human CD1a autoreactive T cells (block of CD1a protein binding to T cells), flow cytometry, FIG. 5. The following applies: in vitro, human CD1a tetramers. How it is done: Exemplified sphingomyelins block CD1a protein binding to RCS36 T cells. Fluorescent human CD1a tetramers were treated with media (mock) or a sphingomyelin variant synthesized with the indicated fatty chain and tested for staining of human CD1a autoreactive T cells using flow cytometry. In all cases the fatty acyl group is conjugated to a C18:1 sphingosine unit. Thus, the C28:1 fatty acyl group and the C18:1 sphingosine group constitute C46:2 sphingomyelin (compound 10).
Generally, naturally occurring cellular sphingomyelins within mammalian cells occur as mixtures, and they are most commonly C34-C36 but can range up to C42 in length.
The degree of inhibition for CD1a protein binding to T cells expressing receptors that normally bind to CD1a was tested for the exemplified compounds 1-10 (see FIG. 5). Increased chain length contributed to blockade in all cases, and the non-natural positioning of the second unsaturation in the fatty acyl unit affected blockade. More blockade was seen when the unsaturation was generated in positions more distal to the head group located at positions 15-17 (Δ15, Δ17). […] Accordingly, additional SM blockers include those with increased length of alkyl chains beyond C46, where the unsaturation is moved to more […] positions in the fatty acyl chain and the number of unsaturations in the fatty acid chain is increased. […]

The subject of experiment [4] is human CD1a transgenic mouse ear skin. The experiment is described as follows: imiquimod (Aldara)-induced psoriasiform skin inflammation in CD1a transgenic mice: ear swelling and skin images. Format: in vivo. The following applies: for inflammatory lesions / visible skin inflammation: images day 7, topical 20 μg in ethanol. How it is done: (§1) Sphingomyelin species C34:1, C42:2 or C46:2 (20 μg/20 μl ethanol), or vehicle alone (20 μl ethanol) were applied topically to WT or CD1a transgenic mouse ear skin at 48 hour intervals before and during application of Aldara on days 0-5 (20 mg 5% imiquimod cream).
Daily measurement of ear swelling induced by imiquimod treatment of wild-type (WT) and CD1a transgenic mice (CD1a) treated topically with 20 μg sphingomyelin (SM34:1, SM42:2 or SM46:2) dissolved in ethanol, or ethanol alone control, as in FIG. 6. (N=2-3, 2-way-ANOVA with Dunnett's test, *, P<0.05; ****, P<0.0001 indicates significance on comparison to “CD1a:EtOH” at day 7, mean±SD).
Representative images of imiquimod-treated wild-type (WT) and CD1a transgenic mouse ear skin (CD1a) treated topically with 20 μg sphingomyelin (SM34:1, SM42:2 or SM46:2) dissolved in ethanol, or ethanol alone control, as in FIG. 6, images taken on day 7. Steroid is mometasone cream.
CD1a is normally expressed on Langerhans cells in the epidermal layer of human skin. […] The lipids of this disclosure block CD1a binding to several T cell clones in vitro and also more broadly block the response of larger populations of polyclonal T cells that recognize CD1a in vivo, leading to decreased inflammation in the skin.
Synthetic long (C46:2 SMΔ17, compound 10), intermediate (C42:2Δ15 SM) and short chain (C34:1 SM) sphingomyelins were compared for inflammatory response. Unlike natural preparations that contain mixtures of short and long chain lipids, these experiments used pure synthetic lipids to titrate CD1a binding and inhibition of immune response. The functional requirements for the delivery vehicle are that it must: 1) dissolve amphipathic lipids, 2) be safe, immunologically unreactive, and non-toxic to skin and 3) create a lipid film that can subsequently penetrate to the epidermal layers, where CD1a is normally located in human skin and in the skin of CD1a transgenic mice. In this experiment, ethanol was chosen which is a chemically simple, safe and effective vehicle; however, other vehicles can also be used.
A widely used model of psoriasiform and dermatitic inflammation induced by Aldara cream, whose active ingredient is a toll-like receptor 7 agonist (imiquimod), was used in this example. Experiments were carried out in which lipid antagonists were applied to the skin of human CD1a transgenic mice in an ethanol carrier, which dried rapidly, leaving a lipid film on the skin. A significant reduction in ear swelling was observed, as a global measure of inflammation and psoriasiform and dermatitic disease when long chain sphingomyelins were applied before (data not shown) or simultaneously with Aldara treatment (FIGS. 7-11).

The subject of experiment [5] is Skin T cell and draining lymph node T cell. Briefly: flow cytometry of ear skin and draining lymph node of imiquimod-treated mice (FIG. 9A). Format: in vivo, mouse. How it is done: as §1
Flow cytometry analysis of ear skin of imiquimod-treated wild-type (WT) and CD1a transgenic mice (CD1a) treated topically with 20 μg sphingomyelin (SM34:1, SM42:2 or SM46:2) dissolved in ethanol, or ethanol alone control, as in FIG. 6. Skin T cell and draining lymph node T cell, frequency was determined. And lymph node CD4 and CD8 T cells assessed for cell surface CD69 expression, which is an indication of T cell activation. Skin and draining LN eosinophil and neutrophil frequency was determined. (N=2-3, 1-way-ANOVA with Dunnett's test, *, P<0.05; **, P<0.01; ***, P<0.001; ****, P<0.0001, mean±SD).

Experiment [6] has as its system skin cytokines. Briefly: skin cytokine levels of imiquimod-treated mice, cytometric bead array (FIG. 9B). The following applies: day 7. Format: in vivo, mouse. How it is done:
as §1
Skin cytokine levels were assessed on day 7 of imiquimod-treated wild-type (WT) and CD1a transgenic mice (CD1a) treated topically with 20 μg sphingomyelin (SM34:1, SM42:2 or SM46:2) dissolved in ethanol, or ethanol alone control, as in FIG. 6, as measured by cytometric bead array. (N=2-3, 1-way-ANOVA with Dunnett's test, *, P<0.05; **, P<0.01; ***, P<0.001; ****, P<0.0001, mean±SD).

Experiment [7] has as its system plasma cytokines. The experiment is described as follows: plasma cytokine levels of imiquimod-treated mice, cytometric bead array (FIG. 10). It is filed as in vivo, mouse. How it is done:
as §1
Plasma cytokine levels of the blood of imiquimod-treated wild-type (WT) and CD1a transgenic mice (CD1a) treated topically with 20 μg sphingomyelin (SM34:1, SM42:2 or SM46:2) dissolved in ethanol, or ethanol alone control, as in FIG. 6, as measured by cytometric bead array. (N=2-3, 1-way-ANOVA with Dunnett's test, *, P<0.05; **, P<0.01, mean±SD).

Experiment [8] has as its system ears of hCD1a and WT mice. Briefly: MC903-induced type 2 skin inflammation and itch in hCD1a mice (FIG. 11). It is filed as in vivo, mouse. How it is done:
FIG. 11 show the impact of sphingomyelin application on MC903 type 2 inflammation and clinical itch. The ears of hCD1a and WT mice were topically treated with 1 nmol MC903/EtOH on days 0, 2 and 5. 20 μg/20 μl of SM 46:2, SM 42:2, SM 34:1 and vehicle were applied on the ear tissue on days-2, 0, 2 and 4. (A) Ear thickness, and (B) itching frequency were evaluated at endpoint of day 6. Each data plot represents an individual ear. Plots show mean±SEM. Statistics were calculated using one-way ANOVA with Tukey post-test. […], **** P<0.001, NS=nonsignificant.
In order to investigate whether SM had efficacy in a different inflammatory skin model, we utilized the MC903-induced model of type 2 cytokine inflammation which has features of dermatitis in humans and prominently causes itch, a major treatable skin symptom. The MC903-induced type 2 inflammation is amplified in the presence of hCD1a (Hardman et al Nat Comms 2022). […] These mice normally express CD1d and then were engineered to express CD1a. […] As well as having potential therapeutic applications in diseases involving type 2 inflammation in humans, the data support utility in treating broader diseases where pruritus and itch are symptoms. CD1a has not been previously linked with pruritus and so this represents a new area of biology and opens new areas for therapeutic application.

[9] abbreviates: MC903, hCD1a mice, day 6, 20 μg topical.

“Also recorded” adds a separate entry of the source. Where two headings read alike, the source gives them in different places.

CD1a protein binding to RCS36 T cells, sequence (P06126 17-327): as the sequence (P06126 17-327) above
CD1a protein binding to RCS36 T cells, sequence (P61769 21-119 partner): as the sequence (P61769 21-119 partner) above

As for `CCCCCCCC/C=C\CCCCCCCC(=O)N[C@@H](COP(=O)([O-])OCC[N+](C)(C)C)[C@H](O)/C=C/CCCCCCCCCCCCC` [36:2 SM], the “binding mode to CD1a and effect on approach of T cell receptors” value in experiment [1] is “binds by tucking its phosphocholine group largely inside CD1a so T cell receptors can approach CD1a and are not blocked”. Moreover, the “CD1a-T cell receptor binding” value in experiment [2] is “did not block binding”.

In the case of `CCCCCCCC/C=C\CCCCCCCCCCCCCC(=O)N[C@@H](COP(=O)([O-])OCC[N+](C)(C)C)[C@H](O)/C=C/CCCCCCCCCCCCC` [42:2 SM], the “binding mode to CD1a and effect on approach of T cell receptors” value in experiment [1] is “binds CD1a with its phosphocholine headgroup protruding, which blocks approach of T cell receptors”. The “CD1a-T cell receptor binding” value in experiment [2] is reported as “blocked CD1a-T cell receptor binding”; in experiment [2] (listed as C42:2 compound), “blocked better than the singly unsaturated C42:1 compound”.

As to `CCCCCCCCCC/C=C\CCCCCCCCCCCCCC(=O)N[C@@H](COP(=O)([O-])OCC[N+](C)(C)C)[C@H](O)/C=C/CCCCCCCCCCCCC` [Compound 8, 44:2 SM d18:1/26:1 (15Z)], the “inhibition of CD1a protein binding to T cells” value in experiment [3] was “somewhat improved blocking of C44Δ15 SM as compared to C44Δ17 SM”.

In the case of `CCCCCCCCCC/C=C\CCCCCCCCCCCCCCCC(=O)N[C@@H](COP(=O)([O-])OCC[N+](C)(C)C)[C@H](O)/C=C/CCCCCCCCCCCCC` [Compound 10, 46:2 SM d18:1/28:1 (17Z)], the “inhibition of CD1a protein binding to T cells” value in experiment [3] is recorded as “strongest blockade; also recorded: strongly blocked CD1a binding to human T cell receptors in vitro”. In addition, the “ear swelling / ear thickening” value in experiment [4] (imiquimod, CD1a transgenic mice, topical 20 μg in ethanol) is on record as “reduced skin swelling; also recorded: most significantly inhibited”. Also, the “inflammatory lesions / visible skin inflammation” value in experiment [4] (imiquimod) is recorded as “most significantly inhibited”. For the same compound, the “inflammatory lesions / visible skin inflammation” value in experiment [4] (imiquimod, listed as C46:2) was “significantly reduced skin inflammation”. Moreover, in experiment [4] (imiquimod, listed as C46:2 SM), the “inflammatory lesions / visible skin inflammation” value was “Reduced inflammatory lesions”. The protection from disease entry in experiment [4] (in vivo mouse model, ethanol application) is given as “protection from disease”. The cellular inflammation entry in experiment [5] (CD1a transgenic mice, topical in ethanol) is “reduced skin swelling and cellular inflammation in vivo”. Moreover, the “CD69 (surface marker of T cell activation)” value in experiment [5] (lymph node CD4 and CD8 T cells) is listed as “significant decreases”. Further, in experiment [6], the “skin IFN-γ” value is reported as “significant decreases”, the “skin IL1α” value is given as “significant decreases”, the “skin IL17α” value is “significant decreases” and the “skin IL-1β” value is listed as “significant decreases”. For the same compound, in experiment [6], the “skin IL-6” value is listed as “significant decreases”, the “skin IL-17f” value was “significant decreases”, the “skin IL-22” value is “significant decreases” and the “skin TNFα” value is “significant decreases”. For the same compound, in experiment [7], the “plasma IFNβ” value was “significantly reduced”, the “plasma IL17α” value is “significantly reduced” and the “plasma IL-4” value is on record as “significantly reduced”. Moreover, in experiment [8] (MC903, day 6, 20 μg topical), the “ear thickness vs wild-type mice treated with MC903” value is reported as “significantly reduced” and the “pruritus vs wild-type mice treated with MC903” value is reported as “significantly reduced”. Moreover, in experiment [8] (setting [9]), the “ear thickness vs vehicle control” value is recorded as “significantly reduced” and the “itching/pruritus scores vs vehicle control” value is “significantly reduced”.

In the case of sulfatide, the “complex with CD1a” value in experiment [1] (sulfatide, co-crystallized, FIG. 4) was “CD1a was co-crystallized with sulfatide; also recorded: forms complex with CD1a”.
